Source: US5968910A, “Compositions containing two or three inhibitors of different HIV reverse transcriptases” (priority 1994, dated 1999)
Where two headings read alike, the source gives them in different places.

Test system: HIV-1
Experiment: Breakthrough of mutant HIV-1 strains in CEM cell cultures, single drugs and double/triple combinations
Assay type: cell-based
Conditions: for activity at 0.04 µg/mL / activity at 0.1 µg/mL / activity at 0.25 µg/mL: Human immunodeficiency virus 1, CCRF-CEM, read-out: HIV-1-induced syncytium formation in CEM cells; for activity at 0.04 µg/mL: single drug 0.04 μg/ml; for activity at 0.1 µg/mL: single drug 0.10 μg/ml; for activity at 0.25 µg/mL: single drug 0.25 μg/ml
Method: The culture medium consisted of RPMI 1640 containing 10% fetal bovine serum, 2 mM L-glutamine, and 0.075% NaHCO3. The multiplicity of the initial infection was ~1000 times the CCID50 (50% cell culture infective dose). Passages were performed every 3 to 4 days by adding 0.5 to 1.0 ml of the infected culture supernatant to 5 ml of a suspension containing 4×10^5 uninfected CEM cells per ml. Syncytium formation was used as a parameter of virus breakthrough in the cell cultures. In the drug combination experiments, the compounds were combined at the same initial concentrations as used for the two lowest concentrations in the single-drug experiments.
Compound IV, BHAP and TSAO-m^3 T were added to HIV-1-infected CEM cell cultures at 0.04, 0.10 and 0.25 ug/ml (Compound IV and BHAP) or 1.0, 2.5 and 5.0 μg/ml (TSAO-m^3 T). In addition, various double- and triple-drug combinations of Compound IV, BHAP and TSAO-m^3 T were performed, combining these inhibitors at their lowest (0.04 μg/ml) or intermediary (0.1 μg/ml) concentration as used in the single-drug experiments.

Compound: Cc1occc1C(=S)Nc1ccc(Cl)c(C(=O)OC2CCCC2)c1 [Compound IV]
- activity at 0.04 µg/mL (96 h, day 4 post infection): 0%
- activity at 0.1 µg/mL (96 h, day 4 post infection): 0%
- activity at 0.25 µg/mL (96 h, day 4 post infection): 0%
- activity at 0.04 µg/mL (168 h, day 7 post infection): 0%
- activity at 0.1 µg/mL (168 h, day 7 post infection): 0%
- activity at 0.25 µg/mL (168 h, day 7 post infection): 0%
- activity at 0.04 µg/mL (264 h, day 11 post infection): 6.25%
- activity at 0.1 µg/mL (264 h, day 11 post infection): 0%
- activity at 0.25 µg/mL (264 h, day 11 post infection): 0%
- activity at 0.04 µg/mL (336 h, day 14 post infection): 12.5%
- activity at 0.1 µg/mL (336 h, day 14 post infection): 6.25%
- activity at 0.25 µg/mL (336 h, day 14 post infection): 0%
- activity at 0.04 µg/mL (432 h, day 18 post infection): 100%
- activity at 0.1 µg/mL (432 h, day 18 post infection): 6.25%
- activity at 0.25 µg/mL (432 h, day 18 post infection): 0%
- activity at 0.04 µg/mL (504 h, day 21 post infection): 100%
- activity at 0.1 µg/mL (504 h, day 21 post infection): 87.5%
- activity at 0.25 µg/mL (504 h, day 21 post infection): 3.12%
- activity at 0.04 µg/mL (600 h, day 25 post infection): 100%
- activity at 0.1 µg/mL (600 h, day 25 post infection): 87.5%
- activity at 0.25 µg/mL (600 h, day 25 post infection): 19%
- activity at 0.04 µg/mL (672 h, day 28 post infection): 100%
- activity at 0.1 µg/mL (672 h, day 28 post infection): 100%
- activity at 0.25 µg/mL (672 h, day 28 post infection): 75%
- activity at 0.04 µg/mL (768 h, day 32 post infection): 100%
- activity at 0.1 µg/mL (768 h, day 32 post infection): 100%
- activity at 0.25 µg/mL (768 h, day 32 post infection): 100%
- activity at 0.04 µg/mL (840 h, day 35 post infection): 100%
- activity at 0.1 µg/mL (840 h, day 35 post infection): 100%
- activity at 0.25 µg/mL (840 h, day 35 post infection): 100%
- activity at 0.04 µg/mL (936 h, day 39 post infection): 100%
- activity at 0.1 µg/mL (936 h, day 39 post infection): 100%
- activity at 0.25 µg/mL (936 h, day 39 post infection): 100%
- activity at 0.04 µg/mL (1008 h, day 42 post infection): 100%
- activity at 0.1 µg/mL (1008 h, day 42 post infection): 100%
- activity at 0.25 µg/mL (1008 h, day 42 post infection): 100%
- activity at 0.04 µg/mL (1104 h, day 46 post infection): 100%
- activity at 0.1 µg/mL (1104 h, day 46 post infection): 100%
- activity at 0.25 µg/mL (1104 h, day 46 post infection): 100%
- activity at 0.04 µg/mL (1176 h, day 49 post infection): 100%
- activity at 0.1 µg/mL (1176 h, day 49 post infection): 100%
- activity at 0.25 µg/mL (1176 h, day 49 post infection): 100%
- activity at 0.04 µg/mL (1272 h, day 53 post infection): 100%
- activity at 0.1 µg/mL (1272 h, day 53 post infection): 100%
- activity at 0.25 µg/mL (1272 h, day 53 post infection): 100%
- activity at 0.04 µg/mL (1344 h, day 56 post infection): 100%
- activity at 0.1 µg/mL (1344 h, day 56 post infection): 100%
- activity at 0.25 µg/mL (1344 h, day 56 post infection): 100%
- activity at 0.04 µg/mL (1440 h, day 60 post infection): 100%
- activity at 0.1 µg/mL (1440 h, day 60 post infection): 100%
- activity at 0.25 µg/mL (1440 h, day 60 post infection): 100%
- activity at 0.04 µg/mL (1536 h, day 64 post infection): 100%
- activity at 0.1 µg/mL (1536 h, day 64 post infection): 100%
- activity at 0.25 µg/mL (1536 h, day 64 post infection): 100%
- activity at 0.04 µg/mL (1608 h, day 67 post infection): 100%
- activity at 0.1 µg/mL (1608 h, day 67 post infection): 100%
- activity at 0.25 µg/mL (1608 h, day 67 post infection): 100%
- activity at 0.04 µg/mL (1704 h, day 71 post infection): 100%
- activity at 0.1 µg/mL (1704 h, day 71 post infection): 100%
- activity at 0.25 µg/mL (1704 h, day 71 post infection): 100%
- activity at 0.04 µg/mL (1776 h, day 74 post infection): 100%
- activity at 0.1 µg/mL (1776 h, day 74 post infection): 100%
- activity at 0.25 µg/mL (1776 h, day 74 post infection): 100%
- activity at 0.04 µg/mL (1848 h, day 77 post infection): 100%
- activity at 0.1 µg/mL (1848 h, day 77 post infection): 100%
- activity at 0.25 µg/mL (1848 h, day 77 post infection): 100%
- virus breakthrough delayed till day (single drug, highest concentration): 21 days
